Test: Reaction rate of fluorescent probe SOSG with 1O2 generated by photosensitizer under light and magnetic field
Format: physicochemical
Conditions: Ce6 and SOSG 10 μmol/L in water, 640 nm LED 5 mW·cm−2
Description: (1) The photosensitizer Rose Bengal (RB) (the purity >98%, available from Saen Chemical Technologies (Shanghai) Ltd. Co., branded as Energy Chemical) and singlet oxygen fluorescent probe (SOSG) are dissolved in water (SOSG available from ThermoFisher Scientific (China) Co., Ltd.). In the resulting solution, the photosensitizer and SOSG are both at a concentration of 10 μmol/L. In a magnetic field with certain strength, the solutions are exposed to a 561 nm LED lamp (light emitting diode) at a power of 5 mW·cm^−2 and tested for fluorescence spectra at 0, 15, 30, 45, 60, 90, 120 and 180 seconds of light exposure, respectively, resulting in emission intensity ([…]) versus time (t) curves. The above fluorescence spectroscopy test is performed at a magnetic field strength of 0, 10, 35, 85, 180, 300 mT, respectively (external magnetic field provided by a neodymium iron boron permanent magnet).
(2) The photosensitizer chlorin e6 (Ce6, Chlorin e6) (available from Saen Chemical Technologies (Shanghai) Ltd. Co., branded as Energy Chemical) and singlet oxygen fluorescent probe (SOSG) are dissolved in water, both with a concentration of 10 μmol/L in the resulting solutions. In a magnetic field with certain strength, the solutions are exposed to a 640 nm LED lamp (light emitting diode) at a power of 5 mW·cm^−2 and tested for fluorescence spectra at 0, 15, 30, 45, 60, 90, 120 and 180 seconds of light exposure, respectively, resulting in emission intensity ([…]) versus time (t) curves. The above fluorescence spectra are tested at a magnetic field strength of 0, 10, 30, 70, 150, 250 mT, respectively.
The external magnetic field is supplied by Neodymium Iron Boron Permanent Magnet. Fluorescence spectra are tested using Edinburg FLS980 Steady State Transient Fluorescence Spectrometer with a detector of PMT R928 and a light source of 450 W ozone-free xenon lamp with excitation wavelength of λex=488 nm.
Under irradiation conditions, photosensitizer is excited to produce singlet oxygen ^1O2, and fluorescent probe SOSG reacts with ^1O2 to give endoperoxide with green fluorescence emission characteristic, with emission wavelength of 525 nm under excitation wavelength conditions of 488 nm. The reaction has a reaction rate of r.
In the present invention, through application of light and a magnetic field, the magnetic field effects (MFEs) is quantified by mfeR, the change rate of the reaction rate r, mfeR=(rB−r0)/r0×100%, where r0 is the reaction rate at a magnetic field strength of 0 mT and rB is the reaction rate at a magnetic field strength of B mT. Where the reaction rate (r) is proportional to the slope of the tangent of a curve (first derivative of the curve) of the emission intensity (I525 nm) versus time (t). Under magnetic field strengths of 0, 10, 35, 85, 180, 300 mT and from the time of starting to illuminate and place in magnetic field (the time recorded as 0), the first derivative of the I525 nm−t curve is 1, 1.05, 1.09, 0.99, 1.12, 1.14 (normalized).

## chlorin e6 [Ce6]
MF 0 mT
  first derivative of I525 nm−t curve at time 0 (normalized): 1
MF 10 mT
  first derivative of I525 nm−t curve at time 0 (normalized): 1.09
MF 30 mT
  first derivative of I525 nm−t curve at time 0 (normalized): 1.33
MF 70 mT
  first derivative of I525 nm−t curve at time 0 (normalized): 1.23
MF 150 mT
  first derivative of I525 nm−t curve at time 0 (normalized): 1.16
MF 250 mT
  first derivative of I525 nm−t curve at time 0 (normalized): 1.12

From patent publication US20250041624A1, “METHOD FOR ENHANCING ACTIVITY OF PHOTOSENSITIZER BY MAGNETIC FIELD” (PEKING UNIVERSITY, priority 2021, published 2025)
